From patent US20020004495A1, “Methods for stimulating bone formation” (priority 1998, published 2002) come the findings set out here.

Test [1] has as its system EP4 mRNA in RP-1 periosteal cells. The test is described as follows: EP4 mRNA in RP-1 periosteal cells (Northern blot). Type of test: cell-based, rat. The settings on record: 10^-6 M. On the procedure: (§1) RP-1 periosteal cells are spontaneously immortalized from primary cultures of periosteal cells from tibae of 4-week old Sprague-Dawley rats and are cultured in DMEM (BRL, Gaithersburg, Md.) with 10% fetal bovine serum (JRH Biosciences, Lenexa, Kans.). […] Total RNA is extracted from the tibial metaphysis or diaphysis and calvaria using a guanidinium isothiocyanate-phenol-chloroform method after pulverizing frozen bone samples by a tissue homogenizer. See P. Chomczynski et al., Single-step method of RNA isolation by acid guanidium thiocyanate-phenol-chloroform extraction., Analyt Biochem, 162, 156-159 (1987), which is incorporated by reference herein in its entirety. RNA samples ([…]) are separated on 0.9% agarose/formaldehyde gels and transferred onto nylon membranes (Boehringer Mannheim, Germany). Membranes are prehybridized in Hybrisol I (Oncor, Gaithersburg, Md.) and 0.5 mg/ml sonicated salmon sperm DNA (Boehringer) at 42° C. for 3 hours and are hybridized at 42° C. with rat EP2 and mouse EP4 cDNA probes labeled with [^32P]-dCTP (Amersham, Buckinghamshire, UK) by random priming using the rediprime kit (Amersham). After hybridization, membranes are washed 4 times in 2×SSC+0.1% SDS at room temperature for a total of 1 hour and once with 0.2×SSC+0.1% SDS at 55° C. for 1 hour and then exposed to Kodak XAR 2 film at −70° C. using intensifying screens. […]

Another test relates to EP2 mRNA in RP-1 cells. Briefly: EP2 mRNA in RP-1 cells (Northern blot). Type of test: cell-based, rat. On the procedure: as §1
The test system of a further test is RCT-3 cells. The test is described as follows: Intracellular cAMP in RCT-3 cells. The class given is cell-based, rat. On the procedure:
(§2) RCT-1 and RCT-3 are clonal cell lines immortalized by SV-40 large T antigen from cells released from fetal rat calvair by a cmbination collagenase/hyaluronidase digestion. RCT-1 cells, derived from cells released during the first 10 minutes of digestion (fraction I), are cultured in RPMI 1640 medium (BRL) with 10% fetal bovine serum and 0.4 mg/ml G418 (BRL). […] RCT-3 cells, immortalized from osteoblast-enriched fraction III cells, are cultured in F-12 medium (BRL) with 5% Fetal bovine serum and 0.4 mg/ml G418. TRAB-11 cells are also immortalized by SV40 large T antigen from adult rat tibia and are cultured in RPMI 1640 medium with 10% FBS and 0.4 mg/ml G418. ROS 17/2.8 rat osteosarcoma cells are cultured in F-12 containing 5% FBS. Osteoblast-enriched (fraction III) primary fetal rat calvaria cells are obtained by collagenase/hyaluronidase digestion of calvariae of 19 day-old rat fetuses. See Rodan et al., Growth stimulation of rat calvaria osteoblastic cells by acidic FGF, Endocrinology, 121, 1919-1923 (1987), which is incorporated by reference herein in its entirety. Cells are released during 30-50 minutes digestion (fraction III) and are cultured in F-12 medium containing 5% FBS. […]

In test [2] the test system is EP4 mRNA in tibiae and calvariae. Briefly: EP4 mRNA in rat bone tissue after systemic administration (Northern blot). The class given is in vivo. On the procedure: For mRNA localization experiments, 5-week old Sprague-Dawley rats (Charles River) are euthanized by CO2, their tibiae and calvariae are excised, cleaned of soft tissues and frozen immediately in liquid nitrogen. For EP4 regulation experiments, 6-week old rats are given a single injection of either vehicle (7% ethanol in sterile water) or an anabolic dose of PGE2 (Cayman Chemical, Ann Arbor, Mich.), 3-6 mg/kg in the same vehicle) intraperitoneally. Animals are euthanized at several time points post-injection and their tibiae and calvariae, as well as samples from lung and kidney tissues are frozen in liquid nitrogen. Total RNA is extracted from the tibial metaphysis or diaphysis and calvaria using a guanidinium isothiocyanate-phenol-chloroform method after pulverizing frozen bone samples by a tissue homogenizer. See P. Chomczynski et al., Single-step method of RNA isolation by acid guanidium thiocyanate-phenol-chloroform extraction., Analyt Biochem, 162, 156-159 (1987), which is incorporated by reference herein in its entirety. RNA samples ([…]) are separated on 0.9% agarose/formaldehyde gels and transferred onto nylon membranes (Boehringer Mannheim, Germany). Membranes are prehybridized in Hybrisol I (Oncor, Gaithersburg, Md.) and 0.5 mg/ml sonicated salmon sperm DNA (Boehringer) at 42° C. for 3 hours and are hybridized at 42° C. with rat EP2 and mouse EP4 cDNA probes labeled with [^32P]-dCTP (Amersham, Buckinghamshire, UK) by random priming using the rediprime kit (Amersham). After hybridization, membranes are washed 4 times in 2×SSC+0.1% SDS at room temperature for a total of 1 hour and once with 0.2×SSC+0.1% SDS at 55° C. for 1 hour and then exposed to Kodak XAR 2 film at −70° C. using intensifying screens. After developing the films, bound probes are removed twice with 0.1% SDS at 80° C. and membranes are hybridized with a human GAPDH (Glyceraldehyde 3-Phosphate Dehydrogenase) cDNA probe (purchased from Clontech, Palo Alto, Calif.) for loading control. To examine if PGE2 regulates EP4 mRNA levels in vivo in bone tissue, […] male rats are injected with PGE2 (3-6 mg/Kg).

For test [3], the system named is EP4 expression in bone marrow cells. The test is described as follows: In situ hybridization of EP4 in rat tibia. Type of test: in vivo. Particulars: rats, single anabolic dose, tibial metaphysis. On the procedure:
For mRNA localization experiments, 5-week old Sprague-Dawley rats (Charles River) are euthanized by CO2, their tibiae and calvariae are excised, cleaned of soft tissues and frozen immediately in liquid nitrogen. For EP4 regulation experiments, 6-week old rats are given a single injection of either vehicle (7% ethanol in sterile water) or an anabolic dose of PGE2 (Cayman Chemical, Ann Arbor, Mich.), 3-6 mg/kg in the same vehicle) intraperitoneally. Animals are euthanized at several time points post-injection and their tibiae and calvariae, as well as samples from lung and kidney tissues are frozen in liquid nitrogen.
Frozen tibiae are sectioned coronally at […] thickness and sections are mounted on charged slides (Probe On Plus, Fisher Scientific, Springfield, N.J.) and are kept at −70° C. until hybridization. cRNA probes are labeled with ^35S-UTPgS (ICN, Costa Mesa, Calif.) using a Riboprobe II kit (Promega Madison, Wis.). Hybridization is performed overnight at 50° C. […]
In situ hybridization is used in order to localize cells expressing EP4 in bone In control experiment (vehicle-injected) rats, low expression of EP4 is detected in bone marrow cells. […]

A further test relates to EP2 mRNA in bone tissue. Briefly: EP2 mRNA in rat bone tissue after systemic administration (Northern blot). Type of test: in vivo. The settings on record: rats, 3-6 mg/Kg. As to the method: For mRNA localization experiments, 5-week old Sprague-Dawley rats (Charles River) are euthanized by CO2, their tibiae and calvariae are excised, cleaned of soft tissues and frozen immediately in liquid nitrogen. For EP4 regulation experiments, 6-week old rats are given a single injection of either vehicle (7% ethanol in sterile water) or an anabolic dose of PGE2 (Cayman Chemical, Ann Arbor, Mich.), 3-6 mg/kg in the same vehicle) intraperitoneally. Animals are euthanized at several time points post-injection and their tibiae and calvariae, as well as samples from lung and kidney tissues are frozen in liquid nitrogen. Total RNA is extracted from the tibial metaphysis or diaphysis and calvaria using a guanidinium isothiocyanate-phenol-chloroform method after pulverizing frozen bone samples by a tissue homogenizer. See P. Chomczynski et al., Single-step method of RNA isolation by acid guanidium thiocyanate-phenol-chloroform extraction., Analyt Biochem, 162, 156-159 (1987), which is incorporated by reference herein in its entirety. RNA samples ([…]) are separated on 0.9% agarose/formaldehyde gels and transferred onto nylon membranes (Boehringer Mannheim, Germany). […]

The next test relates to TRAB-11 cells. The test is described as follows: Intracellular cAMP in TRAB-11 cells. Type of test: cell-based, rat. As to the method:
as §2

Test [4] relates to ROS 17/2.8 rat osteosarcoma cells. The test is described as follows: Intracellular cAMP in ROS 17/2.8 cells. Type of test: cell-based. On the procedure: as §2
The next test concerns EP4 mRNA in RCT-3 cells. The test is described as follows: EP4 mRNA in RCT-3 cells (Northern blot). The class given is cell-based, rat. On the procedure: RCT-1 and RCT-3 are clonal cell lines immortalized by SV-40 large T antigen from cells released from fetal rat calvair by a cmbination collagenase/hyaluronidase digestion. RCT-1 cells, derived from cells released during the first 10 minutes of digestion (fraction I), are cultured in RPMI 1640 medium (BRL) with 10% fetal bovine serum and 0.4 mg/ml G418 (BRL). […] RCT-3 cells, immortalized from osteoblast-enriched fraction III cells, are cultured in F-12 medium (BRL) with 5% Fetal bovine serum and 0.4 mg/ml G418. TRAB-11 cells are also immortalized by SV40 large T antigen from adult rat tibia and are cultured in RPMI 1640 medium with 10% FBS and 0.4 mg/ml G418. ROS 17/2.8 rat osteosarcoma cells are cultured in F-12 containing 5% FBS. Osteoblast-enriched (fraction III) primary fetal rat calvaria cells are obtained by collagenase/hyaluronidase digestion of calvariae of 19 day-old rat fetuses. See Rodan et al., Growth stimulation of rat calvaria osteoblastic cells by acidic FGF, Endocrinology, 121, 1919-1923 (1987), which is incorporated by reference herein in its entirety. Cells are released during 30-50 minutes digestion (fraction III) and are cultured in F-12 medium containing 5% FBS. Total RNA is extracted from the tibial metaphysis or diaphysis and calvaria using a guanidinium isothiocyanate-phenol-chloroform method after pulverizing frozen bone samples by a tissue homogenizer. […]

Structures are written as SMILES.

Consider `CCCCC[C@H](O)/C=C/[C@H]1[C@H](O)CC(=O)[C@@H]1C/C=C\CCCC(=O)O` [PGE2, prostaglandin E2], for which the “effect on EP4 mRNA levels” value in test [1] is listed as “rapidly increases”; with EP4 mRNA in RCT-3 cells, “no effect”. The “time of peak of EP4 mRNA levels after treatment” value in [1] is 2 h. The “induction of EP2 mRNA” value in the test on EP2 mRNA in RP-1 cells is on record as “does not induce”. Moreover, the “effect on intracellular cAMP” value is given as “markedly induced” in the test with RCT-3 cells, “markedly induced” with TRAB-11 cells and “no effect” in [4]. For the same molecule, the “effect on EP4 mRNA levels in the tibial diaphysis” value in test [2] (rats, 3-6 mg/Kg) was “rapidly increased”. Further, the “time of peak of EP4 mRNA levels in the tibial diaphysis after injection” value in test [2] (rats, 3-6 mg/Kg) is reported as 2 h. For the same molecule, the “effect on expression of EP4 in tibiae and calvariae” value in test [2] (young adult rats, 3-6 mg/kg) is reported as “upregulates”. Moreover, in test [2] (young adult rats, 3-6 mg/kg), the “time of peak of EP4 expression in tibiae and calvariae” value was in the range of 1 to 2 h. Also, in [3], the “expression of EP4 in bone marrow cells (in situ hybridization)” value is reported as “increasesd the expression”. The “induction of EP2 mRNA in bone tissue” value in the test with EP2 mRNA in bone tissue is listed as “does not induce”.
